According to paper PMC10498496, “Design and Synthesis of Poly(2,2′-Bipyridyl) Ligands for Induction of Cell Death in Cancer Cells: Control of Anticancer Activity by Complexation/Decomplexation with Biorelevant Metal Cations” (Inorganic Chemistry, 2023):
Read-outs that look alike come from different tables or passages of the source.

What was measured:
Assay type in all cases: cell-based, human
[1] = tested on: A549 cells; experiment: MTT assay, cytotoxicity against A549 cells; settings: treated for 24 h
Method: (§1) Second, we conducted the quantitative evaluation of the cytotoxicity of 1, 2, and 3 against various cancer cell lines by an MTT (3-(4,5-dimethylthiazol-2-yl)-2,5-diphenyltetrazolium bromide) assay. Jurkat, MOLT-4 (these two cell lines are human T-lymphocyte leukemia cells), and U937 (human lymphoma) cells (1.5 × 10^4 cells/well) were incubated in RPMI 1640 medium containing 10% FBS (fetal bovine serum) containing 1, 2, and 3 (0–25 μM) at 37 °C for 24 h, and then treated with the MTT reagent. A549 (human alveolar adenocarcinoma) and IMR-90 (normal human fetal lung fibroblast as model of normal cells) cells (1.5 × 10^4 cells/well) were incubated in DMEM (low glucose) with 10% FBS containing 1, 2, and 3 (0–25 μM), HeLa S3 (human epithelial carcinoma cells) cells (1.5 × 10^4 cells/well) were incubated in MEM with 10% FBS containing these ligands (0–25 μM) for 24 h at 37 °C and then treated with the MTT reagent.
(§2) HeLa S3 cells and A549 cells in MEM and DMEM medium with 10% FBS (1.5 × 10^5 cells/mL per one well) were seeded in to 96 well plates and incubated for 24 h, MTT assay of poly(bpy) ligands (0–25 μM), cisplatin (0–100 μM), and actinomycin D (0–10 μM) was performed according to the same procedure described above.

[2] = tested on: MOLT-4 cells; experiment: MTT assay, cytotoxicity against MOLT-4 cells; settings: MTT, 37 °C, read-out: EC50 against MOLT-4
Method: as §1
(§3) • (a) Cytotoxic study. Jurkat cells, MOLT-4 cells, and U937 cells (1.5 × 10^5 cells/mL per one well) were incubated in 10% FBS RPMI 1640 medium containing 1 (0–25 μM), 2 (0–25 μM) , 3, cisplatin (0–100 μM), and actinomycin D (0–10 μM) under 5% CO2 at 37 °C for 24 h on 96 well plates (Watson), 0.5% MTT (3-(4,5-dimethyl-2-thiazolyl)-2,5-diphenyl-2H-tetrazolium bromide) reagent in PBS (10 μL) was then added to the cells. After incubation at 37 °C for 4 h, a formazan lysis solution (10% SDS in 0.01 N HCl) (100 μL) was added and the resulting solution was incubated overnight under the same conditions, followed by the measurement of absorbance at 570 nm with a microplate reader (BIO-RAD).

[3] = tested on: HeLa S3 cells; experiment: MTT assay, cytotoxicity against HeLa S3 cells; settings: MTT, 37 °C, read-out: EC50 against HeLa S3 (converted)
Method: Second, we conducted the quantitative evaluation of the cytotoxicity of 1, 2, and 3 against various cancer cell lines by an MTT (3-(4,5-dimethylthiazol-2-yl)-2,5-diphenyltetrazolium bromide) assay. Jurkat, MOLT-4 (these two cell lines are human T-lymphocyte leukemia cells), and U937 (human lymphoma) cells (1.5 × 10^4 cells/well) were incubated in RPMI 1640 medium containing 10% FBS (fetal bovine serum) containing 1, 2, and 3 (0–25 μM) at 37 °C for 24 h, and then treated with the MTT reagent. […]
as §2

[4] = tested on: Jurkat cells; experiment: MTT assay, cytotoxicity against Jurkat cells; settings: MTT, 37 °C, read-out: EC50 against Jurkat (converted)
Method: as §1, §3

[5] = tested on: Jurkat cells; experiment: Annexin V-FITC/PI staining by flow cytometry; settings: 24 h
Method: The cell death in Jurkat cells induced by 1 and cisplatin (after the treatment for 24 h) was characterized by the flow cytometry of Jurkat cells after co-staining with Annexin V-FITC and PI to characterize the early and late apoptosis or necrosis. Each of the four areas in Figure 6 indicates Annexin V-FITC negative and PI signal positive (= necrotic cells) (top left square), Annexin V-FITC positive and PI positive (= late apoptosis) (top right square), Annexin V-FITC negative and PI negative (= alive cells) (bottom left square); and Annexin V-FITC positive and PI signal negative (= early apoptosis cells) (bottom right square), respectively. As summarized in Figure 7, the percentage of late apoptotic cells of the cells that had been treated with cisplatin increased from 15 to 75% at [cisplatin] = 12.5 to 50 μM and the percentage of late apoptotic cells of cells treated with 1 increased from 14 to 65% at = […] to 5 μM.
Figure 6 Jurkat cells were treated with no ligand (a) and with 1 (0.5–5 μM) (b,c) and cisplatin (12.5–50 μM) (d,e) and for 24 h, stained with Annexin V-FITC/PI, and observed by flow cytometry. The four areas in each graph show necrotic cells in the top left square (Annexin V-FITC^-/PI^+), late apoptotic cells in the top right square (Annexin V-FITC^+/PI^+), alive cells in the bottom left square (Annexin V-FITC^–/PI^–), and apoptotic cells in the bottom right square (Annexin V-FITC^+/PI^–). TEXT PRINTED IN THE PICTURE: (b) 1: 1.14 (0.5 μM); 14.7 (0.5 μM); 83.5 (0.5 μM); 0.7 (0.5 μM) | (c) 1: 0.82 (5 μM); 59 (5 μM); 38.5 (5 μM); 1.6 (5 μM) | (d) cisplatin: 4.19 (12.5 μM); 24.3 (12.5 μM); 71.3 (12.5 μM); 0.23 (12.5 μM) | (e) cisplatin: 0.94 (50 μM); 66.2 (50 μM); 32.6 (50 μM); 0.24 (50 μM) DOUBTS OF THE COPYIST ABOUT THIS PICTURE: The quadrant numbers are printed without a measure or unit. In each panel they are given in the order top left, top right, bottom left, bottom right. / Panel (a) Control (1.26, 3.82, 94.9, 0.072) is left out because it is not a substance.
Jurkat cells (1.0 × 10^5 cells/tube) were incubated in 10% FBS RPMI 1640 medium containing solution of 1 ([…]) and cisplatin (0–50 μM) for 24 h. The cells were then centrifuged at 3000 rpm for 5 min at 4 °C, then the supernatant was discarded, and the pellet was resuspended in 200 μL of PBS. The cells were then centrifuged at 3000 rpm for 5 min at 4 °C, then the supernatant was discarded, and the pellet was resuspended in 195 μL of 1 × binding buffer. A 195 μL aliquot of the sample solution was incubated with 5 μL of FITC-conjugated annexin V (Invitrogen) for 15 min at room temperature in the dark. […] 200 μL of the sample solution transferred to culture tube were analyzed by flow cytometry (Becton Dickinson) using Cell Quest Research Software (Becton Dickinson).

N.N.[Cl][Pt][Cl] [cisplatin, reference compound]
EC50 ([1]; 37 °C): > 100 µM
EC50 ([2]; treated for 24 h): 14 ± 0.3 µM
EC50 ([3]; treated for 24 h): 29 ± 1.2 µM
EC50 ([4]; treated for 24 h): 33 ± 0.2 µM
percentage of late apoptotic cells ([5]; 12.5 μM (Figure 7, n = 3)): 15%
percentage of late apoptotic cells ([5]; 50 μM (Figure 7, n = 3)): 75%

c1ccc(-c2ccc(OCc3cc(COc4ccc(-c5ccccn5)nc4)cc(COc4ccc(-c5ccccn5)nc4)c3)cn2)nc1 [compound 1, 1,3,5-Tris(([2,2′-Bipyridin]-5-yloxy)methyl)benzene]
EC50 ([1]; Homo sapiens, A549, 37 °C): 15 ± 0.79 µM
EC50 ([2]; Homo sapiens, MOLT-4, treated for 24 h): 0.21 ± 0.36 µM
EC50 ([2]; Homo sapiens, MOLT-4, treated for 48 h): < 0.1 µM
EC50 ([3]; Homo sapiens, HeLa S3, treated for 24 h): 16 ± 0.33 µM
EC50 ([3]; Homo sapiens, HeLa S3, treated for 48 h): 2.8 µM
EC50 ([4]; Homo sapiens, Jurkat, treated for 24 h): 0.14 ± 0.13 µM
EC50 ([4]; Homo sapiens, Jurkat, treated for 48 h): 0.064 µM
percentage of late apoptotic cells ([5]; 0.25 μM (Figure 7, n = 3)): 14%
percentage of late apoptotic cells ([5]; 5 μM (Figure 7, n = 3)): 65%
